Experiments:
[1] = for effect of peptidase inhibitors on systemic absorption of TRH: 4 mM, Bestatin, 60 uM, D,L-Thiorphan, 0.6 uM, ocular TRH
[2] = Absorption of insulin into systemic circulation via the eyes or i.v. (125I blood level); type: in vivo, rabbit; conditions: ocular insulin plus leucine-leucine
[3] = Enkephalin-equivalent remaining in eye tissues at the end of 12 hr experiment
[4] = Blood enkephalin-equivalent concentration after ocular or i.v. enkephalin

Question: For O=C(O)CNC(=O)C(CS)Cc1ccccc1 (racemic) [D,L-Thiorphan, D,L-thiorphan], which “effect of peptidase inhibitors on systemic absorption of TRH” value ([1]; Leu-Leu) is on record?
Answer: The value was “did not significantly enhance the systemic absorption of TRH”.

Question: Which “eye drop concentration sufficient to reach therapeutic effective blood concentration” value ([1]; rabbit, in vivo) does the source give for CC(C)C[C@H](NC(=O)CNC(=O)[C@H](Cc1ccc(O)cc1)NC(=O)[C@H](CO)NC(=O)[C@H](Cc1c[nH]c2ccccc12)NC(=O)[C@H](Cc1cnc[nH]1)NC(=O)[C@@H]1CCC(=O)N1)C(=O)N[C@@H](CCCNC(=N)N)C(=O)N1CCC[C@H]1C(=O)NCC(N)=O [LHRH, luteinizing hormone-releasing hormone] here?
Answer: The value was 0.005%.

Question: With CC(C)C[C@H](NC(=O)[C@@H](N)CC(C)C)C(=O)O [Leu-Leu, leucine-leucine] as the compound, how does the “effect of peptidase inhibitors on systemic absorption of TRH” value ([1]; Leu-Leu) read?
Answer: The value was “did not significantly enhance the systemic absorption of TRH”.

Question: And the “effect of peptidase inhibitor on systemic absorption of LHRH” value ([1]; Leu-Leu, 5 mM, ocular LHRH)?
Answer: The value was “did increase the systemic absorption of LHRH significantly”.

Question: And the “effect of peptidase inhibitor on systemic absorption of glucagon” value ([1]; Leu-Leu, 5 mM, ocular glucagon)?
Answer: The value was “did not increase the systemic absorption of glucagon”.

Question: And the “effect of added peptidase inhibitor on insulin absorption” value [2]?
Answer: The value was “did not significantly improve insulin absorption”.

Question: Which “eye drop concentration giving a therapeutic blood concentration” value ([1]; rabbit, in vivo) does the source give for NC(=O)[C@@H]1CCCN1C(=O)[C@H](Cc1cnc[nH]1)NC(=O)[C@@H]1CCC(=O)N1 [TRH, Thyrotrophin-releasing hormone] here?
Answer: The value was at least 0.0025%.

Question: And the “peak blood TRH concentration” value ([1]; rabbit, in vivo)?
Answer: The value was 138 ng/mL.

Question: And the “steady state blood TRH concentration after the peak” value ([1]; rabbit, in vivo)?
Answer: The value was 60 ng/mL.

Question: What about the “time from the peak to steady state” value ([1]; rabbit, in vivo) of the same compound?
Answer: Its value is 9 h.

Question: And the time to peak ([1]; rabbit, in vivo)?
Answer: The time to peak was 60 min.

Question: For CC(C)C[C@H](NC(=O)[C@H](Cc1ccccc1)NC(=O)CNC(=O)CNC(=O)[C@@H](N)Cc1ccc(O)cc1)C(=O)O [enkephalin, Leucine-enkephalin (5-L-leucine)], which “actual concentration of enkephalin in the lens compared with other tissues” value [3] is on record?
Answer: Its value is “lowest among all tissues”.

Question: And the “Tx of decline of blood concentration” value ([4]; 50 ug i.v.)?
Answer: The value was “less than 30 min”.

Question: And the “lowest point of blood concentration” value ([4]; 50 ug i.v., in 5 hrs)?
Answer: Its value is 22 ng/mL.

Question: What about the “plateau blood enkephalin concentration” value ([4]; 1% enkephalin instilled into eye) of the same compound?
Answer: Its value is 72 ng/mL.

Question: And the “plateau blood enkephalin concentration” value ([4]; 5% enkephalin instilled into eye)?
Answer: The value was 233 ng/mL.
